What all share (assay): Km and Vmax determination at pH 6 (XI activity assay coupled to sorbitol dehydrogenase, Hanes plot)
What all share (assay type): biochemical
What all share (conditions): xylose about 40-600 mM, about 35° C., lysate of S. cerevisiae CEN.PK2-1Ca expressing XI from p426PGK1

In assay [1] the test system is Firmicutes xylose isomerase, clone 1753MI4_001, SEQ ID NO: 38. On the procedure: (§1) XI activity in cell lysates was determined using a method based on that of Kersters-Hilderson et al., 1986, Enzyme Microb. Technol. 9:145-148, in which enzymatic conversion of xylose to xylulose by the XI is coupled with the enzymatic conversion of the product (xylulose) to xylitol via the enzyme sorbitol dehydrogenase (SDH). SDH activity requires the oxidation of NADH to NAD^+. The rate of oxidation of NADH is directly proportional to the rate of SDH conversion of D-xylulose to D-xylitol and is measured by the decrease in absorbance at 340 nm One unit of enzyme activity as measured by this assay is a decrease of […] of NADH per minute under assay conditions. All reactions, solutions, plates, and spectrophotometer were equilibrated to about 35° C. prior to use. Assays were performed either on fresh lysates immediately after preparation or lysates that had been frozen at −20° C. immediately after preparation. Assays were performed using a BioTek Model: Synergy H1 Hybrid Reader spectrophotometer and 96-well plates (Corning, Model #Costar® #3598). All spectrophotometric readings were performed at 340 nm. […]
(§2) The reaction buffer used for experiments at pH 7.5 was about 100 mM Tris-HCl (pH 7.5). […] For experiments where activity was also measured at pH 6, the buffer was changed to about 100 mM sodium phosphate, pH 6. […]
(§3) Any sample dilutions were performed using the reaction buffer as diluent. […] Reactions were mixed and read immediately using kinetic assay mode for about 10 minutes. Volumetric activity (VA) units are in milli-absorbance (mA) units per minute per ml of lysate added to the reactions (mA/min/ml). […] If protein quantitation was performed, specific activities (SA) were calculated where the units for SA are (mole NADH^+/min/mg, or U/mg lysate protein). […]
(§4) The Km and Vmax at pH 6 were determined for a subset of the XI clones, expressed on p426PGK1 vector in Saccharomyces cerevisiae CEN.PK2-1Ca (ATCC: MYA1108), using the XI activity assay described in the Materials and Methods and varying the concentrations of xylose from about 40-600 mM. […]

The subject of assay [2] is Prevotella xylose isomerase, clone 1754MI1_001, SEQ ID NO: 78. On the procedure: as §1, §2, §3, §4
In assay [3] the test system is Prevotella xylose isomerase, clone 5586MI108_002, SEQ ID NO: 96. On the procedure: as §1, §2, §3, §4

Data on one compound can be found in patent US9982249B2, “Xylose isomerases and their uses” (BP Corporation North America Inc., priority 2012, dated 2018).

Take `OC1OC[C@@H](O)[C@H](O)[C@H]1O` (stereo partly drawn) [xylose, D-xylose]: the Michaelis-Menten constant (Km) (in general, the substrate concentration at which the rate is half of its maximum) stood at 28.8 mM in assay [1], 35.2 mM in assay [2] and 33.7 mM in assay [3].
